Measured values: ChEMBL document CHEMBL5096199, “Structure-Based Optimization of Small Molecule Human Galactokinase Inhibitors” (J Med Chem, 2021)

Assays:
Galactokinase = Galactokinase (Homo sapiens, UniProt P51570); experiment: Inhibition of recombinant human GALK1 using galactose as substrate incubated for 1 hrs in the presence of ATP by Kinase-Glo reagent based luminescence assay
[1] = Permeability of the compound at pH 7.4 measured after 30 mins by PAMPA based LC/MS analysis; format: ADME; settings: PAMPA, pH 7.4, read-out: permeability
[2] = Metabolic stability in human liver microsomes assessed as half life; format: ADME, Microsome
physchem = settings: phosphate buffer, pH 7.4
Description: Kinetic solubility of the compound in phosphate buffer at pH 7.4 at 150 uM incubated for 6 hrs by shake-flask method

[3] = Metabolic stability in mouse liver microsome assessed as half life; format: ADME; settings: microsomes

Galactokinase, sequence (P51570 whole entry): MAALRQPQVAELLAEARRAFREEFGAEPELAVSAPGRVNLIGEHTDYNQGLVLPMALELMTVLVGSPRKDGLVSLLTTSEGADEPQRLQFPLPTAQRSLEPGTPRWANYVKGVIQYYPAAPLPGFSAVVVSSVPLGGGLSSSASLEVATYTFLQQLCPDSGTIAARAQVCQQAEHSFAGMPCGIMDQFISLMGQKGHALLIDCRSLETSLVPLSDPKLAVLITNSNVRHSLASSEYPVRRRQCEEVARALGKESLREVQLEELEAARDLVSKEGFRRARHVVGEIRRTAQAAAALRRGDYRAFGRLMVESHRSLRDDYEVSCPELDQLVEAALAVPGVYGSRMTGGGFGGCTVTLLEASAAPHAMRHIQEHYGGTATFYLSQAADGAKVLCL

IC50 (Galactokinase; read-out: pIC50 (converted))	SMILES	other results
11.7 µM	CC1=C(C(=O)NCc2cnn(C)c2)[C@@H](c2ccc(C)cc2Cl)N=C(Nc2nc3cccc(N)c3o2)N1	–
–	CCn1cc(CNC(=O)C2=C(C)NC(Nc3nc4ccc(F)c(N)c4o3)=NC2c2ccc(C)cc2Cl)cn1 (racemic)	Papp at 0.5 h [1]: 410 ×10⁻⁶ cm/s; t1/2 [2]: 8 min; IC50 (Galactokinase; read-out: IC50): 0.048 µM; solubility kinetic at 6 h, 150 µM (physchem): < 1 µg/mL; t1/2 [3]: 14 min
3.72 µM	CC1=C(C(=O)Nc2nncs2)C(c2ccccc2Cl)N=C(Nc2nc3ccccc3o2)N1 (stereo not given)	IC50 (Galactokinase; read-out: IC50): 3.43 µM
0.447 µM	CC1=C(C(=O)Nc2cc(C(=O)O)ccn2)C(c2ccc(N3CCOCC3)cc2Cl)N=C(Nc2nc3ccc(F)cc3o2)N1 (stereo not given)	–
0.891 µM	CC1=C(C(=O)Nc2cc(C(=O)O)ccn2)C(c2ccc(F)cc2Cl)N=C(Nc2nc3ccc(F)cc3o2)N1 (stereo not given)	–
4.17 µM	CC1=C(C(=O)Nc2ccccc2Cl)C(c2ccccc2Cl)N=C(Nc2nc3ccccc3o2)N1 (stereo not given)	–
1.05 µM	CC1=C(C(=O)Nc2cc(C(=O)O)ccn2)C(c2ccc(Cl)cc2Cl)N=C(Nc2nc3ccc(F)cc3o2)N1 (stereo not given)	–
5.25 µM	CC1=C(C(=O)Nc2nnc(C)s2)C(c2ccccc2Cl)N=C(Nc2nc3ccccc3o2)N1 (stereo not given)	–
19.5 µM	COc1ccc2nc(NC3=NC(c4ccccc4Cl)C(C(=O)Nc4cc(C(=O)O)ccn4)=C(C)N3)oc2c1 (stereo not given)	–
10.5 µM	CC1=C(C(=O)Nc2ccccc2)C(c2ccccc2Cl)N=C(Nc2nc3ccccc3o2)N1 (stereo not given)	–
3.72 µM	CC1=C(C(=O)Nc2ccc(O)cc2)C(c2ccccc2Cl)N=C(Nc2nc3ccccc3o2)N1 (stereo not given)	–
1.41 µM	CC1=C(C(=O)NCc2cnn(C)c2)C(c2ccccc2Cl)N=C(Nc2nc3ccccc3o2)N1 (stereo not given)	–
0.447 µM	COc1ccc(C2N=C(Nc3nc4ccc(F)cc4o3)NC(C)=C2C(=O)Nc2cc(C(=O)O)ccn2)c(Cl)c1 (stereo not given)	–
9.33 µM	CC1=C(C(=O)Nc2cc(C(=O)O)ccn2)C(c2ccccc2Cl)N=C(Nc2nc3c(C)cccc3o2)N1 (stereo not given)	–
4.47 µM	COC(=O)c1ccc(NC(=O)C2=C(C)NC(Nc3nc4ccccc4o3)=NC2c2ccccc2Cl)cc1 (stereo not given)	IC50 (Galactokinase; read-out: IC50): 4.32 µM
0.562 µM	CC1=C(C(=O)Nc2cc(C(=O)O)ccn2)C(c2ccccc2Br)N=C(Nc2nc3ccc(F)cc3o2)N1 (stereo not given)	–
9.33 µM	CC1=C(C(=O)NCc2cccc(C(=O)O)c2)C(c2ccccc2Cl)N=C(Nc2nc3ccccc3o2)N1 (stereo not given)	–
19.5 µM	CC1=C(C(=O)Nc2cc(C(=O)O)ccn2)C(c2ccccc2Cl)N=C(Nc2nc3c(N)cccc3o2)N1 (stereo not given)	–

SMILES	IC50 (Galactokinase; read-out: pIC50 (converted))	other results
CC1=C(C(=O)Nc2cccc(CO)c2)C(c2ccccc2Cl)N=C(Nc2nc3ccccc3o2)N1 (stereo not given)	4.17 µM	–
